The text below walks through data of patent US20260144783A1, “COMPOSITION FOR PREVENTING OR TREATING PERIPHERAL NEUROPATHY, CONTAINING ISOQUINOLINE DERIVATIVE AS ACTIVE INGREDIENT” (ALTMEDICAL CO., LTD., priority 2022, published 2026).

In data set [1] the test system is mitochondrial reactive oxygen species (ROS). The data set is described as follows: MitoSOX assay. The note with it: CD1-012 10 μM or 15 μM, CCCP 10 μM, 24 hours. The data set is classed as cell-based. How it is done: (§1) It was confirmed whether the isoquinoline derivative according to the present invention induces mitochondrial dysfunction, similar to CCCP. To this end, the CD1-012 (10 μM or 15 μM) and CCCP (10 μM) were treated for 24 hours, and the mitochondrial membrane potential and mitochondrial reactive oxygen species (ROS) levels in each sample were analyzed. Mitochondrial membrane potential was analyzed using the TMRM (tetramethylrhodamine methyl ester) assay, and mitochondrial ROS levels were analyzed using the MitoSOX assay.

For data set [2], the system named is mitochondrial membrane potential. Put plainly: TMRM assay. The settings on record: CD1-012 10 μM or 15 μM, CCCP 10 μM, 24 hours. It is filed as cell-based. How it is done:
as §1

Data set [3] concerns BEAS-2B cell line, in which PINK1 was knocked down (shPINK1). Put plainly: mitophagy activity in PINK1 knockdown cell line (FACS). The data set is classed as cell-based, human. The settings on record: CCCP 10 μM or CD1-012 15 μM, 18 hours. How it is done:
In this example, it was confirmed whether the mitophagy activation function of the isoquinoline derivative according to the present invention is dependent on the PINK1-Parkin pathway. To this end, after a BEAS-2B cell line, in which PINK1 was knocked down using short hairpin RNA (shRNA), was treated with CCCP (10 μM) of Comparative Example 1 or CD1-012 (15 μM) for 18 hours, the mitophagy activity of each sample was analyzed using flow cytometry (FACS).

The next data set has as its system BEAS-2B cell line. The data set is described as follows: mitophagy activity, mt-Keima fluorescent protein (FACS, confocal microscope, mito-YFP). The note with it: BEAS-2B mt-Keima, FIG. 5. The data set is classed as cell-based, human. How it is done: To analyze the mitophagy-promoting activity effect of the CD1-012 synthesized in the Example 1, the BEAS-2B cell line, which is a human normal lung cell line, was induced to express the mt-Keima fluorescent protein. Following this, the CD1-012 (15 μM) and the compound of Comparative Example 1, CCCP (10 μM), were treated for 24 hours. After the treatment, the mitophagy activity of each sample was measured, and the results were represented in FIGS. 1A to IC.
Specifically, FIG. 1A represents the analysis results using flow cytometry (FACS) (treatment of CD1-012 at 15 µM for 24 hours), FIG. 1B represents the analysis results using a confocal microscope (treatment of CD1-012 at 15 μM for 18 hours), and FIG. 1C represents the measurement results of the quantitative changes in the mitochondria using a fluorescent protein, mito-YFP, which includes a targeting sequence to transport protein to the mitochondria (treatment of CD1-012 at 20 μM for 24 hours).
It was confirmed whether CD1-012 synthesized in Example 1 promotes mitophagy activity in a concentration- and time-dependent manner. To this end, the CD1-012 was treated at various concentrations or at a fixed concentration (15 μM) for different treatment durations in the BEAS-2B cell line expressing mt-Keima, and mitophagy activity was measured using a flow cytometer.
It was confirmed whether CD1-012 synthesized in Example 1 specifically increases only mitophagy activity. To this end, the BEAS-2B cell line expressing mt-Keima was treated with CD1-012 (15 μM) or Comparative Example 1 (CCCP, 10 μM) for 18 hours, and mitophagy activity was analyzed using a confocal microscope. Additionally, to measure autophagy activity, the BEAS-2B cell line expressing Keima fluorescent protein was incubated in Hanks' balanced salt solution (HBSS) for 3 hours to induce a starvation condition (starv.), and the results were compared with samples treated with CD1-012 (15 μM) for 18 hours using a confocal microscope.
To this end, the human normal lung cell line BEAS-2B, expressing mt-Keima fluorescent protein, was treated with CD1-012, Comparative Example 2 (palmatine), or Comparative Example 3 (berberine) at various concentrations, and the mitophagy-inducing activity of each sample was compared.

Data set [4] concerns chemotherapy-induced peripheral neuropathy mouse model. Put plainly: nerve distribution in the footpad (IENFs), peripheral neuropathy mouse model. The data set is classed as in vivo. The note with it: mice, paclitaxel alone.
The subject of data set [5] is C4da sensory neurons (ppk1a>CD4-tdTom Drosophila). Put plainly: morphology of dendritic branches of C4da sensory neurons. It is filed as in vivo. The settings on record: paclitaxel treatment, C4da sensory neurons. The text has this:
To analyze the morphological changes in the dendritic branches of C4da sensory neurons, transgenic Drosophila expressing the fluorescent protein CD4-tdTomato specifically in C4da neurons (ppk^1a>CD4-tdTom) was generated. After treatment of the transgenic flies with paclitaxel and CD1-012, morphological changes in the dendritic branches of C4da sensory neurons were examined. As a result, treatment with paclitaxel increased the total dendrite length and the number of dendritic branches by 22% and 33%, respectively, confirming that morphological changes in the sensory neurons were induced.

For data set [6], the system named is third-instar larvae of Drosophila (w1118). The data set is classed as in vivo. The note with it: paclitaxel 20 μM 48 hours alone. How it is done:
To this end, thermal sensitivity was measured in a Drosophila model of paclitaxel-induced peripheral neuropathy. […] As a result, after treatment with paclitaxel, hyperalgesia was observed, as indicated by a 35% reduction in withdrawal latency from 6.9 seconds to 4.5 seconds (FIG. 8A). Subsequently, to confirm the therapeutic effect of CD1-012 on peripheral neuropathy, Drosophila were treated with CD1-012 at a concentration of 1 mM along with paclitaxel (20 μM).
Subsequently, to understand the molecular mechanism underlying the therapeutic effect of CD1-012 on chemotherapy-induced peripheral neuropathy, the therapeutic effect of CD1-012 was examined after suppressing the expression of ULK1 or Rap9, which are essential genes in the recently identified alternative mitophagy pathway. To this end, a heat probe assay was performed using a 40° C. thermal probe after co-treating paclitaxel (20 μM) and CD1-012 (1 mM) in Drosophila expressing shULK1 or shRap9 in C4da sensory neurons, as well as in control Drosophila (wild-type). As a result, in the control group, the peripheral neuropathy symptoms (reduction in withdrawal latency) induced by paclitaxel were recovered by CD1-012 treatment.

The subject of data set [7] is chemotherapy-induced peripheral neuropathy mouse model. The data set is described as follows: vonfrey hair test, peripheral neuropathy mouse model. The note with it: mice, paclitaxel alone. The data set is classed as in vivo. How it is done:
To more clearly verify the therapeutic effect of the isoquinoline derivative of the present invention on peripheral neuropathy, particularly chemotherapy-induced peripheral neuropathy, experiments were conducted using a peripheral neuropathy mouse model. Specifically, peripheral neuropathy was induced in mice by administration of a chemotherapeutic agent (paclitaxel), and CD1-012 was co-administered at a dose of 10 mg/kg or 20 mg/kg. Sensitivity to pain was then analyzed using the vonfrey hair test.

In a further data set the test system is Drosophila larvae. The data set is described as follows: larval size after treatment. It is filed as in vivo. The note with it: Drosophila larvae, FIG. 8B. How it is done: In addition, to evaluate whether the compound according to the present invention affects the growth of Drosophila, the size of larvae was measured after treatment with paclitaxel and CD1-012.

Turning to `N#CC(C#N)=NNc1cccc(Cl)c1` [CCCP, Carbonyl cyanide 3-chlorophenylhydrazone, reference compound], in data set [1], the “mitochondrial ROS levels” value is recorded as “significantly increased”. Also, in data set [2], the mitochondrial membrane potential entry is “significantly reduced”. In addition, the “mitophagy activation in PINK1 knockdown cell line (shPINK1) compared to control” value in [3] was “significantly decreased”.

Turning to `COc1ccc2cc3[n+](cc2c1OC)CCc1cc2c(cc1-3)OCO2` [berberine, Berberine, reference compound], the “concentration at which mitophagy activity reached its maximum (comparable level)” value with BEAS-2B cell line was determined as 80 µM.

For `CC(=O)O[C@H]1C(=O)[C@@]2(C)[C@H]([C@H](OC(=O)c3ccccc3)[C@]3(O)C[C@H](OC(=O)[C@H](O)[C@@H](NC(=O)c4ccccc4)c4ccccc4)C(C)=C1C3(C)C)[C@]1(OC(C)=O)CO[C@@H]1C[C@@H]2O` [paclitaxel, reference compound], in [4], the “number of peripheral nerves (intraepidermal nerve fibers: IENFs) in the footpad” value was “reduced”. Further, in data set [5], the “increase in number of dendritic branches” value is listed as 33% and the “increase in total dendrite length” value was 22%. Moreover, the “reduction in withdrawal latency” value in [6] (from 6.9 seconds to 4.5 seconds) is reported as 35%. In [6] (heat probe 40° C., untreated 6.9 seconds), this compound showed a withdrawal latency of 4.5 s. The pain sensitivity entry in data set [7] is reported as “increased”. Also, in the data set with Drosophila larvae, the “reduction in larval size compared to the untreated control group” value is recorded as around 28%.

Take `COc1cc2c(cc1OC)-c1cc3ccc(OC)c(OC)c3c[n+]1CC2` [palmatine, Palmatine, reference compound]: in the data set on BEAS-2B cell line, the “concentration at which mitophagy activity reached its maximum (comparable level)” value is 400 µM.
